Experimental data: PubChem BioAssay AID602234 (The Scripps Research Institute Molecular Screening Center, 2012)
Activity calls are given as the source filed them. The rule behind the calls is not given here.

Assay: SRC3 coactivator transcriptional activity inhibitors, dose response, counter-screen for SRC1 inhibitor project, cell-based, luminescence (AID 602234);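 note: HEK293 cells co-transfected with pGL4.31 reporter and pBIND-SRC3 fusion vector; potency for inhibition of reporter luminescence with Gossypol as full inhibition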
Settings: transfected HEK293 cells, counter-screen luciferase reporter

Row | SMILES | IC50
1 | Cc1ccccc1C(=O)/C(C#N)=N/Nc1c(C)n(C)n(-c2ccccc2)c1=O | 3.53 µM
2 | COc1ccc(-n2cnc(N)c2C(=O)c2cccc([N+](=O)[O-])c2)cc1 | 3.87 µM
3 | CC(NC(=O)COC(=O)c1cccs1)c1ccccc1 (stereo not given) | > 35.9 µM (inactive)
4 | S=C(c1ccc(-c2ccccc2)cc1)N1CCOCC1 | 7.59 µM
5 | Nc1ccc(Oc2ccccc2-c2ccccc2)cc1 | 7.34 µM
6 | COc1cccc(C2=CC(=O)CC(C)(C)C2)c1 | 6.27 µM
7 | NNC(=O)c1cc2ccccc2cc1O | 1.57 µM
8 | CNc1ncnc(Sc2nc(N)nc3nc[nH]c23)c1[N+](=O)[O-] | 2.81 µM
9 | CCOc1ccccc1-n1c(SCC(=O)Nc2ccccc2C(=O)O)nc2ccccc2c1=O | 9.64 µM
10 | Cc1ccc(C)c(NC(=O)c2ccccc2NS(=O)(=O)c2cc([N+](=O)[O-])ccc2C)c1 | 1.44 µM
11 | Nc1ncccc1C(=O)OCC(=O)N1CCN(S(=O)(=O)c2ccc(Cl)cc2)CC1 | 8.27 µM
12 | O=C(CCl)N(c1ccccc1)C1CCS(=O)(=O)C1 (stereo not given) | 1.74 µM
13 | CC1CCN(C(=O)c2scc3c2OCCO3)CC1 | 10 µM (inactive)
14 | COc1ccc(NC(=O)CN(C)C(=O)C2(c3ccccc3)CCCC2)cc1 | 5.39 µM
15 | O=C(O)c1ccccc1-c1c2cc(I)c(=O)c(I)c-2oc2c(I)c(O)c(I)cc12 | > 35.9 µM (inactive)
16 | CCOC(=O)CC(=O)CSc1nccc(-c2cccnc2)n1 | 18.4 µM (inactive)
17 | CS(=O)(=O)Nc1cccc(NC(=O)C2Cc3c(-c4ccco4)ccnc3O2)c1 (stereo not given) | > 12 µM (inactive)
18 | Cc1nc2ccccn2c1-c1ccnc(=S)[nH]1 | 4.25 µM
19 | O=C(Nc1cccc(C(F)(F)F)c1)Nc1nnc([C@@H]2C[C@H](O)[C@@H](CO)O2)s1 | 4.17 µM
20 | COc1ccc(-c2cc(=O)oc3c(C)c(O)c(CN(C)C)cc23)cc1 | 12.1 µM (inactive)
21 | Cc1ccc(S(=O)(=O)Nc2c(NC3CCCCC3)c3ccccc3oc2=O)c(C)c1 | 23.1 µM (inactive)
22 | CC(=O)N1CCN(c2ccc(Oc3ncnc4sccc34)cc2)CC1 | 4.79 µM
23 | O=C(Nc1nc(-c2ccccn2)cs1)c1cccc(S(=O)(=O)N2CCOCC2)c1 | > 12 µM (inactive)
24 | COc1cccc(/C=N/NC(=O)CNC(=O)C2COc3ccccc3O2)c1O (stereo not given) | 4.31 µM
25 | CCN(CC)CCNC(=O)c1ccc(NC(=O)C2CCN(c3ncnc4sc(C)c(C)c34)CC2)cc1 | 3.94 µM
26 | OCCN1CCN(C(=S)c2ccc(-c3ccccc3)cc2)CC1 | 1.28 µM
27 | O=C(Nc1ccncc1)c1ccccc1[N+](=O)[O-] | 4.77 µM

Row | SMILES | IC50
28 | Cc1ccc(/C=C2/SC(=S)N(CCCC(=O)Nc3ccc(O)cc3)C2=O)cc1 | 3.23 µM
29 | Nc1nc(CCl)nc(Nc2cccc3ccccc23)n1 | 3.61 µM
30 | O=C1CCC2S/C(=C/Nc3ccc(C(F)(F)F)cc3)C(=O)N12 (stereo not given) | 7.25 µM
31 | CCN1CCN(C(=S)c2ccc(-c3ccccc3)cc2)CC1 | 4.62 µM
32 | Cc1cccn2c(=O)c3cc(C(=O)NCCN4CCOCC4)c(=N)n(Cc4cccnc4)c3nc12 | 12.7 µM (inactive)
33 | C=CCn1c(O)c(C(C)=NCc2cc(OC)cc(OC)c2)c(=O)[nH]c1=O | 1.02 µM
34 | COc1ccc2ncn(-c3ccccc3)c2c1 | 2.99 µM
35 | C=CCn1c(Oc2ccccc2F)nc2c1c(=O)n(C)c(=O)n2C | 3.36 µM
36 | CCCCCOc1ccc(/C=C/c2c([N+](=O)[O-])c(=O)n(C)c(=O)n2C)cc1 | 4.32 µM
37 | O=C(N/N=C/c1ccccc1O)/C(=C/c1ccccc1)CCO | 5.52 µM
38 | COc1cc(C2c3cc4c(cc3C(OC3OC5COC(c6cccs6)OC5C(O)C3O)C3COC(=O)C23)OCO4)cc(OC)c1O (stereo not given) | 0.0913 µM
39 | c1cnc2ccc(-n3ccnc3)cc2c1 | 7.69 µM
40 | Cc1ccc(N=c2c([N+](=O)[O-])nn(-c3ccc4c(c3)OCCO4)n2O)cc1F | 3.24 µM
41 | Cc1nn(C(C)(C)C)c(C)c1/C=N/OC(=O)Nc1ccc(Cl)c(Cl)c1 | 2.09 µM
42 | Cc1ccc(N(Cc2cc(=O)[nH]c3ccccc23)C(=O)CCl)c(C)c1 | 2.67 µM
43 | COC(=O)c1cccc2c1-c1ccccc1/C2=N/O | 2.57 µM
44 | CC1CCCCN1c1ncnc2ccccc12 (stereo not given) | 8.39 µM
45 | Cn1nc(C(F)(F)F)c(C#N)c1N1CCN(c2ccc(F)cc2)CC1 | 2.13 µM
46 | N#Cc1cc2ccncc2c2ccccc12 | 4.76 µM
47 | O=[N+]([O-])c1ccc(N(CCO)CCO)c2c1no[n+]2[O-] | 6.44 µM
48 | O=C(c1ccncc1)N(Cc1cc2ccccc2[nH]c1=O)C1CCCCC1 | 5.34 µM
49 | COc1ccc(/C=C2\CC/C(=C\c3ccc(OC)c(OC)c3)C2=O)cc1OC | 5.96 µM
50 | COc1ccccc1NS(=O)(=O)c1cccc(NC(=O)c2cncc(Br)c2)c1 | 7.71 µM
51 | COc1ccc(Oc2nc3c(c(=O)n(C)c(=O)n3C)n2C)cc1 | 7.76 µM
52 | CCOC(=O)CSc1cc(-c2ccccc2)nc2ncnn12 | > 35.9 µM (inactive)
53 | Cc1sc2ncnc(N3CCC(C(=O)Nc4cc(S(C)(=O)=O)ccc4Cl)CC3)c2c1C | 10.1 µM (inactive)
54 | Cc1ccc(NC(=O)NC2CC(=O)N(c3ccc4c(c3)OCCO4)C2)cc1C (stereo not given) | 1.08 µM

Row | SMILES | IC50
55 | Cc1cc(=O)[nH]c(Nc2cccc(Br)c2)n1 | 6.81 µM
56 | COc1ccccc1-c1cc2nc(-c3ccccc3)cc(N3CCN(C(=O)c4ccco4)CC3)n2n1 | 5.66 µM
57 | CCCCC(CC)COCCCN=Cc1c(O)[nH]c(=S)[nH]c1=O (stereo not given) | 5.74 µM
58 | c1nc2sc3c(c2c2nnnn12)CCCC3 | 9.84 µM
59 | CN(CC(=O)Nc1ccc(Cl)c(C(F)(F)F)c1)C(=O)C1CC(=O)N(c2ccc3c(c2)OCCO3)C1 (stereo not given) | 7.04 µM
60 | CC(C)Cn1c(N)c(C(=O)COC(=O)c2cc3ccccc3cc2O)c(=O)n(C)c1=O | > 12 µM (inactive)
61 | O=C(CCl)NC(Cc1ccccc1)c1ccccc1 (stereo not given) | 6.42 µM
62 | Cc1ccc(OCC(=O)c2cc(C)n(-c3ccccc3)c2C)c([N+](=O)[O-])n1 | 2.46 µM
63 | COc1cc2c(cc1OC)C(C)N(C(=O)c1cccc([N+](=O)[O-])c1)CC2 (stereo not given) | 7.27 µM
64 | Cc1nc2c(-c3ccc(Cl)cc3)c(C)[nH]n2c(=O)c1Cc1ccccc1 | 4.49 µM
65 | CC1CC(C)C(=NNC(N)=O)C(C(O)CC2CCC(=O)NC2=O)C1 (stereo not given) | 7.99 µM
66 | c1ccc(-c2nnc(-c3ccccn3)nc2NC2CCCCC2)cc1 | 2.89 µM
67 | OCCN(CCO)CC(O)COc1ccc(C23CC4CC(CC(C4)C2)C3)cc1 (stereo not given) | 12.1 µM (inactive)
68 | NS(=O)(=O)c1ccc(Nc2nc(-c3cccnc3)cs2)cc1 | 6.23 µM
69 | CC(=O)C1=C(C)NC2=C(C(=O)CC(C)(C)C2)C1C (stereo not given) | 7.94 µM
70 | COC(CN(C(=O)CCl)C(C(=O)NC1CCCCC1)c1ccccc1C)OC (stereo not given) | 3.76 µM
71 | O=[N+]([O-])c1ccc2c(c1)-c1ccccc1C2=NO | 3.34 µM
72 | S=C(Nc1ccccc1)Nc1ccc(OCc2ccc(Cl)cc2Cl)cc1 | 1.39 µM
73 | COC(=O)N(NC(=O)C(O)(CCC(C)C)CCC(C)C)c1ccccc1 | > 35.9 µM (inactive)
74 | COC(=O)c1sc2cnccc2c1N | 8.34 µM
75 | COc1cccc(/C=N/NC(=O)C(=O)Nc2ccccc2OC(F)(F)C(F)F)c1O | 5.65 µM
76 | COc1ccc2c(C#N)c3ccccn3c2c1 | 11.2 µM (inactive)
77 | CC(C)(C)OC(=O)NCC(=O)Oc1cc2oc(=O)cc(-c3ccccc3)c2cc1Cl | 11.5 µM (inactive)
78 | CN(C)c1ccc(Nc2ncnc3ccc(Br)cc23)cc1 | 2.09 µM
79 | O=C(COC(=O)c1ccc[nH]c1=O)Nc1ccc(N2CCCCC2)cc1 | 5.35 µM
80 | CCC(=O)c1ccc(Oc2nc3c(c(=O)n(C)c(=O)n3C)n2CC)cc1 | 2.87 µM
